Results published in article PMC5218480 (PLoS ONE, 2017).

System: MV-4-11 cells
Test: Gene expression microarray analysis (Affymetrix PrimeView) and GSEA
Assay type: cell-based, human
Parameters: RFU PODN (11730768_x_at) / Fold change /veh PODN (11730768_x_at) / RFU LINC00158 (11744669_a_at) / Fold change /veh LINC00158 (11744669_a_at) / RFU DUSP10 (11751237_a_at) / Fold change /veh DUSP10 (11751237_a_at) / RFU ID3 (11757404_x_at) / Fold change /veh ID3 (11757404_x_at) / RFU PLEKHG5 (11737974_s_at) / Fold change /veh PLEKHG5 (11737974_s_at) / RFU LRRC4B (11730491_at) / Fold change /veh LRRC4B (11730491_at) / RFU GIMAP4 (11747438_a_at) / Fold change /veh GIMAP4 (11747438_a_at) / RFU KRT8 (11758183_x_at) / Fold change /veh KRT8 (11758183_x_at) / RFU CNN1 (11734310_a_at) / Fold change /veh CNN1 (11734310_a_at) / RFU VPS37D (11726825_at) / Fold change /veh VPS37D (11726825_at) / RFU C10orf10 (11716522_x_at) / Fold change /veh C10orf10 (11716522_x_at) / RFU KIR2DL2 /// KIR2DL4 /// KIR2DL5A /// KIR2DL5B /// KIR2DS1 /// KIR2DS2 /// KIR2DS3 /// KIR2DS4 /// KIR3DL3 /// KIR3DL3 /// KIR3DS1 (11738374_at) / Fold change /veh KIR2DL2 /// KIR2DL4 /// KIR2DL5A /// KIR2DL5B /// KIR2DS1 /// KIR2DS2 /// KIR2DS3 /// KIR2DS4 /// KIR3DL3 /// KIR3DL3 /// KIR3DS1 (11738374_at) / RFU C1QL1 (11718748_at) / Fold change /veh C1QL1 (11718748_at) / RFU TMPRSS4 (11747572_a_at) / Fold change /veh TMPRSS4 (11747572_a_at) / RFU HAMP (11756126_x_at) / Fold change /veh HAMP (11756126_x_at) / RFU RNFT2 (11725882_a_at) / Fold change /veh RNFT2 (11725882_a_at) / RFU NR4A2 (11747474_a_at) / Fold change /veh NR4A2 (11747474_a_at) / RFU ABCC12 (11746883_a_at) / Fold change /veh ABCC12 (11746883_a_at) / RFU TMEM136 (11760407_x_at) / Fold change /veh TMEM136 (11760407_x_at) / RFU CLDN22 /// WWC2 (11732394_at) / Fold change /veh CLDN22 /// WWC2 (11732394_at) / RFU HLA-DPB1 (11760878_x_at) / Fold change /veh HLA-DPB1 (11760878_x_at) / RFU SPINT1 (11716480_a_at) / Fold change /veh SPINT1 (11716480_a_at) / RFU GAP43 (11754022_s_at) / Fold change /veh GAP43 (11754022_s_at) / RFU A4GNT (11735810_at) / Fold change /veh A4GNT (11735810_at) / RFU PRB3 (11715151_x_at) / Fold change /veh PRB3 (11715151_x_at) / RFU TUBB4B (11761932_at) / Fold change /veh TUBB4B (11761932_at) / RFU CAPN14 (11732068_a_at) / Fold change /veh CAPN14 (11732068_a_at) / RFU TMCC2 (11721928_a_at) / Fold change /veh TMCC2 (11721928_a_at) / RFU IRGQ (11745062_a_at) / Fold change /veh IRGQ (11745062_a_at) / RFU FAM174B (11720279_a_at) / Fold change /veh FAM174B (11720279_a_at) / RFU TMPRSS4 (11748680_a_at) / Fold change /veh TMPRSS4 (11748680_a_at) / RFU FAM212B (11763350_a_at) / Fold change /veh FAM212B (11763350_a_at) / RFU PLEKHG5 (11743358_a_at) / Fold change /veh PLEKHG5 (11743358_a_at) / RFU ZSCAN30 (11745921_a_at) / Fold change /veh ZSCAN30 (11745921_a_at) / RFU CMKLR1 (11741424_a_at) / Fold change /veh CMKLR1 (11741424_a_at) / RFU LOC101060620 /// MAPK8IP1 (11723275_at) / Fold change /veh LOC101060620 /// MAPK8IP1 (11723275_at) / RFU SPTSSB (11747773_x_at) / Fold change /veh SPTSSB (11747773_x_at) / RFU PRSS12 (11739890_at) / Fold change /veh PRSS12 (11739890_at) / RFU BIN1 (11741810_x_at) / Fold change /veh BIN1 (11741810_x_at) / RFU WNT11 (11732464_a_at) / Fold change /veh WNT11 (11732464_a_at) / RFU C10orf10 (11716521_a_at) / Fold change /veh C10orf10 (11716521_a_at) / RFU C5orf56 (11738089_at) / Fold change /veh C5orf56 (11738089_at) / RFU CYB561 (11721691_x_at) / Fold change /veh CYB561 (11721691_x_at) / RFU ANKRD19P (11752326_a_at) / Fold change /veh ANKRD19P (11752326_a_at) / RFU OR2T12 /// OR2T33 /// OR2T8 (11738714_s_at) / Fold change /veh OR2T12 /// OR2T33 /// OR2T8 (11738714_s_at) / RFU VCAN (11748164_a_at) / Fold change /veh VCAN (11748164_a_at) / RFU JSRP1 (11732532_at) / Fold change /veh JSRP1 (11732532_at) / RFU KRTAP10-11 (11738290_x_at) / Fold change /veh KRTAP10-11 (11738290_x_at) / RFU MYO3A (11730013_a_at) / Fold change /veh MYO3A (11730013_a_at) / RFU EBF3 (11725865_a_at) / Fold change /veh EBF3 (11725865_a_at) / RFU CAMK2N1 (11719241_x_at) / Fold change /veh CAMK2N1 (11719241_x_at) / RFU C5orf56 (11738088_a_at) / Fold change /veh C5orf56 (11738088_a_at) / RFU OLFML3 (11715873_a_at) / Fold change /veh OLFML3 (11715873_a_at) / RFU LOC100653217 /// NTM (11731650_a_at) / Fold change /veh LOC100653217 /// NTM (11731650_a_at) / RFU MAPK11 (11762145_a_at) / Fold change /veh MAPK11 (11762145_a_at) / RFU FIZ1 (11724087_x_at) / Fold change /veh FIZ1 (11724087_x_at) / RFU OASL (11726364_x_at) / Fold change /veh OASL (11726364_x_at) / RFU SOX15 (11748057_x_at) / Fold change /veh SOX15 (11748057_x_at) / RFU CD79A (11719716_a_at) / Fold change /veh CD79A (11719716_a_at) / RFU HIST1H1D (11736915_at) / Fold change /veh HIST1H1D (11736915_at) / RFU CASKIN2 (11723855_a_at) / Fold change /veh CASKIN2 (11723855_a_at) / RFU LOC730098 (11760151_x_at) / Fold change /veh LOC730098 (11760151_x_at) / RFU OR4N2 (11742367_at) / Fold change /veh OR4N2 (11742367_at) / RFU PRRT2 (11749266_a_at) / Fold change /veh PRRT2 (11749266_a_at) / RFU SNX32 (11753110_a_at) / Fold change /veh SNX32 (11753110_a_at) / RFU CDHR5 (11726645_a_at) / Fold change /veh CDHR5 (11726645_a_at) / RFU RCAN1 (11760418_a_at) / Fold change /veh RCAN1 (11760418_a_at) / RFU FAM167A (11723789_a_at) / Fold change /veh FAM167A (11723789_a_at) / RFU FAM26E (11764081_at) / Fold change /veh FAM26E (11764081_at) / RFU ISYNA1 (11749810_s_at) / Fold change /veh ISYNA1 (11749810_s_at) / RFU ACY1 (11761880_at) / Fold change /veh ACY1 (11761880_at) / RFU 11764098_at / Fold change /veh 11764098_at / RFU SAMD14 (11745864_x_at) / Fold change /veh SAMD14 (11745864_x_at) / RFU NPB (11741838_a_at) / Fold change /veh NPB (11741838_a_at) / RFU TMPRSS6 (11731388_a_at) / Fold change /veh TMPRSS6 (11731388_a_at) / RFU KRTAP10-2 (11738614_at) / Fold change /veh KRTAP10-2 (11738614_at) / RFU ARHGAP8 /// PRR5-ARHGAP8 (11727945_x_at) / Fold change /veh ARHGAP8 /// PRR5-ARHGAP8 (11727945_x_at) / RFU KRTAP5-7 /// NADSYN1 (11734609_at) / Fold change /veh KRTAP5-7 /// NADSYN1 (11734609_at) / RFU RASL12 (11751679_a_at) / Fold change /veh RASL12 (11751679_a_at) / RFU CDKN2B (11736163_a_at) / Fold change /veh CDKN2B (11736163_a_at) / RFU PRF1 (11729649_at) / Fold change /veh PRF1 (11729649_at) / RFU, ZNF638 /// ZNF638-IT1 / Fold change vs veh, ZNF638 /// ZNF638-IT1 / RFU, PANK3 / Fold change vs veh, PANK3 / RFU, SH3YL1 / Fold change vs veh, SH3YL1 / RFU, ZEB2 / Fold change vs veh, ZEB2 / RFU, NRIP1 / Fold change vs veh, NRIP1 / RFU, PTTG1IP / Fold change vs veh, PTTG1IP / RFU, CAPN2 / Fold change vs veh, CAPN2 / RFU, MED14 / Fold change vs veh, MED14 / RFU, SNORA58 / Fold change vs veh, SNORA58 / RFU, C1orf63 / Fold change vs veh, C1orf63 / RFU, LRRFIP1 / Fold change vs veh, LRRFIP1 / RFU, NDUFAF7 / Fold change vs veh, NDUFAF7 / RFU, SLC12A2 / Fold change vs veh, SLC12A2 / RFU, IBTK / Fold change vs veh, IBTK / RFU, ESF1 / Fold change vs veh, ESF1 / Fold change vs veh, TMEM50B / RFU, TAOK1 / Fold change vs veh, TAOK1 / RFU, ACBD3 / Fold change vs veh, ACBD3 / RFU, TMA16 / Fold change vs veh, TMA16 / RFU, RWDD3 / Fold change vs veh, RWDD3 / RFU, BCAT1 / Fold change vs veh, BCAT1 / RFU, EDEM3 / Fold change vs veh, EDEM3 / RFU, TMEM33 / Fold change vs veh, TMEM33 / RFU, WDR75 / Fold change vs veh, WDR75 / RFU, AHCTF1 / Fold change vs veh, AHCTF1 / RFU, TFRC / Fold change vs veh, TFRC / RFU, ZDHHC17 / Fold change vs veh, ZDHHC17 / RFU, NOM1 / Fold change vs veh, NOM1 / RFU, ARL8B / Fold change vs veh, ARL8B / RFU, ZBTB11 / Fold change vs veh, ZBTB11 / RFU, TAMM41 / Fold change vs veh, TAMM41 / RFU, KIAA1704 /// LOC100996395 / Fold change vs veh, KIAA1704 /// LOC100996395 / RFU, ING1 / Fold change vs veh, ING1 / RFU, TRMT61B / Fold change vs veh, TRMT61B / RFU, FUBP3 / Fold change vs veh, FUBP3 / RFU, TP53 / Fold change vs veh, TP53 / RFU, TNKS2 / Fold change vs veh, TNKS2 / RFU, ZFP14 / Fold change vs veh, ZFP14 / RFU, ACTR2 / Fold change vs veh, ACTR2 / RFU, PPP3R1 / Fold change vs veh, PPP3R1 / RFU, PIK3R1 / Fold change vs veh, PIK3R1 / RFU, HNRNPA1 / Fold change vs veh, HNRNPA1 / RFU, RNF170 / Fold change vs veh, RNF170 / RFU, ZNF28 / Fold change vs veh, ZNF28 / RFU, RNGTT / Fold change vs veh, RNGTT / RFU, OGT / Fold change vs veh, OGT / RFU, BRD1 / Fold change vs veh, BRD1 / RFU, MARS / Fold change vs veh, MARS / RFU, ZNF655 / Fold change vs veh, ZNF655 / RFU, FAHD1 / Fold change vs veh, FAHD1 / RFU, BDP1 / Fold change vs veh, BDP1 / RFU, LRRCC1 / Fold change vs veh, LRRCC1 / RFU, ARID1A / Fold change vs veh, ARID1A / RFU, ZNF146 / Fold change vs veh, ZNF146 / RFU, ZNF330 / Fold change vs veh, ZNF330 / RFU, GPN3 / Fold change vs veh, GPN3 / RFU, C9orf123 / Fold change vs veh, C9orf123 / RFU, N4BP2L2 / Fold change vs veh, N4BP2L2 / RFU, ARFIP1 / Fold change vs veh, ARFIP1 / RFU, FAM179B / Fold change vs veh, FAM179B / RFU, BCL10 / Fold change vs veh, BCL10 / RFU, UHRF1BP1L / Fold change vs veh, UHRF1BP1L / RFU, BET1 / Fold change vs veh, BET1 / RFU, CNOT2 / Fold change vs veh, CNOT2 / RFU, ZNF268 / Fold change vs veh, ZNF268 / Fold change vs veh, ZNF507 / RFU, DGCR2 / Fold change vs veh, DGCR2 / RFU, WDSUB1 / Fold change vs veh, WDSUB1 / Fold change vs veh, HSP90B1 /// MIR3652 / RFU, ADSS / Fold change vs veh, ADSS / RFU, GK / Fold change vs veh, GK / RFU, ZNF148 / Fold change vs veh, ZNF148 / RFU, TAF9 / Fold change vs veh, TAF9 / RFU, SLC1A5 / Fold change vs veh, SLC1A5 / RFU, SLMO2 / Fold change vs veh, SLMO2 / RFU, ABCC4 / Fold change vs veh, ABCC4 / RFU, LOC101060439 /// RAP1B / Fold change vs veh, LOC101060439 /// RAP1B / RFU, RFX7 / Fold change vs veh, RFX7 / RFU, GTPBP10 / Fold change vs veh, GTPBP10 / RFU, CNEP1R1 / Fold change vs veh, CNEP1R1 / RFU, BIVM-ERCC5 /// ERCC5 / Fold change vs veh, BIVM-ERCC5 /// ERCC5 / RFU, ILF3 / Fold change vs veh, ILF3 / RFU 11762660_at / Fold change /veh 11762660_at / RFU VCAN (11757783_s_at) / Fold change /veh VCAN (11757783_s_at) / RFU DDX43 (11728927_at) / Fold change /veh DDX43 (11728927_at) / RFU KRT8 (11758188_x_at) / Fold change /veh KRT8 (11758188_x_at) / RFU NKD1 (11759106_at) / Fold change /veh NKD1 (11759106_at) / RFU SRD5A1 (11742802_a_at) / Fold change /veh SRD5A1 (11742802_a_at) / RFU TPSAB1 /// TPSB2 (11721975_s_at) / Fold change /veh TPSAB1 /// TPSB2 (11721975_s_at) / RFU GSTM3 (11746129_a_at) / Fold change /veh GSTM3 (11746129_a_at) / RFU IL23R (11737362_x_at) / Fold change /veh IL23R (11737362_x_at) / RFU TMEM51 (11727254_a_at) / Fold change /veh TMEM51 (11727254_a_at) / RFU PIWIL2 (11732686_x_at) / Fold change /veh PIWIL2 (11732686_x_at) / RFU ORM1 (11744905_x_at) / Fold change /veh ORM1 (11744905_x_at) / RFU CCDC152 (11743942_at) / Fold change /veh CCDC152 (11743942_at) / RFU ECM1 (11717891_a_at) / Fold change /veh ECM1 (11717891_a_at) / RFU IL23R (11748794_a_at) / Fold change /veh IL23R (11748794_a_at) / RFU TNFAIP8L3 (11732012_x_at) / Fold change /veh TNFAIP8L3 (11732012_x_at) / RFU MBOAT4 (11741988_at) / Fold change /veh MBOAT4 (11741988_at) / RFU 11764193_at / Fold change /veh 11764193_at / RFU TMEM53 (11763286_at) / Fold change /veh TMEM53 (11763286_at) / RFU MAGEB2 (11727129_at) / Fold change /veh MAGEB2 (11727129_at) / RFU TMEM200A (11744735_a_at) / Fold change /veh TMEM200A (11744735_a_at) / RFU CCDC152 (11751479_a_at) / Fold change /veh CCDC152 (11751479_a_at) / RFU FAM211A (11726209_a_at) / Fold change /veh FAM211A (11726209_a_at) / RFU RGS16 (11746705_a_at) / Fold change /veh RGS16 (11746705_a_at) / RFU VCAN (11755009_s_at) / Fold change /veh VCAN (11755009_s_at) / RFU RHOB (11743442_s_at) / Fold change /veh RHOB (11743442_s_at) / RFU RGS16 (11720943_a_at) / Fold change /veh RGS16 (11720943_a_at) / RFU RGS16 (11720944_at) / Fold change /veh RGS16 (11720944_at) / RFU, VPS4B / Fold change vs veh, VPS4B / RFU, CREB1 / Fold change vs veh, CREB1 / RFU, DNAJC13 / Fold change vs veh, DNAJC13 / RFU, GNAQ / Fold change vs veh, GNAQ / RFU, CDK5R1 / Fold change vs veh, CDK5R1 / RFU, ZRANB3 / Fold change vs veh, ZRANB3 / RFU, CUL4A / Fold change vs veh, CUL4A / RFU, CCNY / Fold change vs veh, CCNY / RFU, UFL1 / Fold change vs veh, UFL1 / RFU, COG3 / Fold change vs veh, COG3 / RFU, DIAPH2 / Fold change vs veh, DIAPH2 / RFU, SKA2 / Fold change vs veh, SKA2 / RFU, AFF3 / Fold change vs veh, AFF3 / RFU, LMF1 / Fold change vs veh, LMF1 / RFU, IPO11 / Fold change vs veh, IPO11 / RFU, DFFB / Fold change vs veh, DFFB / RFU, FOXP1 / Fold change vs veh, FOXP1 / RFU, CARD8 / Fold change vs veh, CARD8 / RFU, STRN3 / Fold change vs veh, STRN3 / RFU, ADK / Fold change vs veh, ADK / RFU, RASSF2 / Fold change vs veh, RASSF2 / RFU, WIPF1 / Fold change vs veh, WIPF1 / RFU, LARP1B / Fold change vs veh, LARP1B / RFU, RASA1 / Fold change vs veh, RASA1 / RFU, RB1 / Fold change vs veh, RB1 / RFU, PPFIA1 / Fold change vs veh, PPFIA1 / RFU, MAT2A / Fold change vs veh, MAT2A / RFU, CCT5 / Fold change vs veh, CCT5 / RFU, WDR92 / Fold change vs veh, WDR92 / RFU, CUX1 / Fold change vs veh, CUX1 / RFU, TTC7A / Fold change vs veh, TTC7A / RFU, TMEM135 / Fold change vs veh, TMEM135 / RFU, DEPTOR / Fold change vs veh, DEPTOR / RFU, CPM / Fold change vs veh, CPM / RFU, DNAJB6 / Fold change vs veh, DNAJB6 / RFU, CACNA2D3 / Fold change vs veh, CACNA2D3 / RFU, DTX4 / Fold change vs veh, DTX4 / RFU, TFCP2 / Fold change vs veh, TFCP2 / RFU, GMCL1 /// GMCL1P1 / Fold change vs veh, GMCL1 /// GMCL1P1 / RFU, AEBP2 / Fold change vs veh, AEBP2 / RFU, SNHG1 /// SNORD22 /// SNORD25 /// SNORD26 /// SNORD27 /// SNORD28 /// SNORD29 /// SNORD31 / Fold change vs veh, SNHG1 /// SNORD22 /// SNORD25 /// SNORD26 /// SNORD27 /// SNORD28 /// SNORD29 /// SNORD31 / Fold change (Aza/veh), C12orf56 (ProbeSet 11735607_a_at) / Fold change (ACY-1035/veh), C12orf56 (ProbeSet 11735607_a_at) / Fold change (Aza/veh), FGFR1OP (ProbeSet 11751329_s_at) / Fold change (ACY-1035/veh), FGFR1OP (ProbeSet 11751329_s_at) / Fold change (Aza/veh), VPS36 (ProbeSet 11739960_a_at) / Fold change (ACY-1035/veh), VPS36 (ProbeSet 11739960_a_at) / RFU SYPL1 (11715823_x_at) / Fold change /veh SYPL1 (11715823_x_at) / RFU IGFBP7 (11715501_s_at) / Fold change /veh IGFBP7 (11715501_s_at) / RFU REEP3 (11722064_at) / Fold change /veh REEP3 (11722064_at) / RFU IGLL1 (11728026_x_at) / Fold change /veh IGLL1 (11728026_x_at): dose or concentration left out as unconfirmed
Details: MV-4-11 cells, 48 hours

## Nc1ncn([C@@H]2O[C@H](CO)[C@@H](O)[C@H]2O)c(=O)n1 [azacitidine]
  Fold change /veh PLEKHG5 (11743358_a_at): 1.07
